From PubChem BioAssay AID1845207 (Molecular Pharmacology Branch, DTP, NCI, 2023)
Several values for one entry are separate records, joined by “and”; a condition that tells them apart may be missing. Equal values may be shown once.

Test system: NCI-H1876 tumor spheroid viability
Test: Anticancer human tumor NCI-H1876 cell line growth inhibition;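 also: spheroids exposed to compounds for seven days before the viability read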;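 as to viability, T/C: percent of DMSO vehicle control viability so 100% = vehicle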
Settings: spheroids with HUVEC and MSC; for viability, T/C: stronger effect = lower value
Method in brief: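 Single agents and combinations were tested on spheroids built from tumor cells plus HUVEC and hMSC, at half-log dilutions starting at or near clinical Cmax, else 10 microM; final DMSO 0.25% (v/v).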

CC(C)n1c(=O)n(C)c2cnc3cc(F)c(-c4ccc(OCCCN5CCCCC5)nc4)cc3c21 + Cn1nnc2c(C(N)=O)ncn2c1=O
IC50 (curve of first compound, second compound 1 µM): 411 nM | IC50 (curve of first compound, second compound 3.16 µM): 517 nM | IC50 (curve of first compound, second compound 10 µM): 571 nM | IC50 (curve of first compound, second compound 31.6 µM): 623 nM | IC50 (curve of first compound, second compound 100 µM): 176 nM | viability, T/C (second compound 1 µM, first compound 0.0316 µM): 87% | viability, T/C (second compound 1 µM, first compound 0.1 µM): 68.1% | viability, T/C (second compound 1 µM, first compound 0.316 µM): 51.6% | viability, T/C (second compound 1 µM, first compound 1 µM): 39.2% | viability, T/C (second compound 1 µM, first compound 3.16 µM): 27.7% | viability, T/C (second compound 1 µM, first compound 10 µM): 12.1% | viability, T/C (second compound 3.16 µM, first compound 0.0316 µM): 88.9% | viability, T/C (second compound 3.16 µM, first compound 0.1 µM): 70.7% | viability, T/C (second compound 3.16 µM, first compound 0.316 µM): 54.7% | viability, T/C (second compound 3.16 µM, first compound 1 µM): 42.6% | viability, T/C (second compound 3.16 µM, first compound 3.16 µM): 29.6% | viability, T/C (second compound 3.16 µM, first compound 10 µM): 12.8% | viability, T/C (second compound 10 µM, first compound 0.0316 µM): 85.5% | viability, T/C (second compound 10 µM, first compound 0.1 µM): 68.6% | viability, T/C (second compound 10 µM, first compound 0.316 µM): 55.4% | viability, T/C (second compound 10 µM, first compound 1 µM): 41.6% | viability, T/C (second compound 10 µM, first compound 3.16 µM): 36.1% | viability, T/C (second compound 10 µM, first compound 10 µM): 11.4% | viability, T/C (second compound 31.6 µM, first compound 0.0316 µM): 84.8% | viability, T/C (second compound 31.6 µM, first compound 0.1 µM): 72.5% | viability, T/C (second compound 31.6 µM, first compound 0.316 µM): 58.7% | viability, T/C (second compound 31.6 µM, first compound 1 µM): 42.8% | viability, T/C (second compound 31.6 µM, first compound 3.16 µM): 29.7% | viability, T/C (second compound 31.6 µM, first compound 10 µM): 12.8% | viability, T/C (second compound 100 µM, first compound 0.0316 µM): 62.4% | viability, T/C (second compound 100 µM, first compound 0.1 µM): 55.2% | viability, T/C (second compound 100 µM, first compound 0.316 µM): 43.2% | viability, T/C (second compound 100 µM, first compound 1 µM): 35.3% | viability, T/C (second compound 100 µM, first compound 3.16 µM): 25.9% | viability, T/C (second compound 100 µM, first compound 10 µM): 10.2%

Cn1ncnc1[C@H]1c2n[nH]c(=O)c3cc(F)cc(c23)N[C@@H]1c1ccc(F)cc1 + CC[C@@]1(O)C(=O)OCc2c1cc1n(c2=O)Cc2cc3c(CN(C)C)c(O)ccc3nc2-1
IC50 (curve of first compound, second compound 0.003 µM): 57.9 nM | IC50 (curve of first compound, second compound 0.00949 µM): < 9.49 nM | IC50 (curve of first compound, second compound 0.03 µM): < 9.49 nM | IC50 (curve of first compound, second compound 0.0949 µM): < 9.49 nM | IC50 (curve of first compound, second compound 0.3 µM): < 9.49 nM | viability, T/C (second compound 0.003 µM, first compound 0.00949 µM): 71% | viability, T/C (second compound 0.003 µM, first compound 0.03 µM): 60.4% | viability, T/C (second compound 0.003 µM, first compound 0.0949 µM): 36% | viability, T/C (second compound 0.003 µM, first compound 0.3 µM): 39.9% | viability, T/C (second compound 0.003 µM, first compound 0.949 µM): 6.31% | viability, T/C (second compound 0.003 µM, first compound 3 µM): 0.18% | viability, T/C (second compound 0.00949 µM, first compound 0.00949 µM): 44.6% | viability, T/C (second compound 0.00949 µM, first compound 0.03 µM): 37.4% | viability, T/C (second compound 0.00949 µM, first compound 0.0949 µM): 29% | viability, T/C (second compound 0.00949 µM, first compound 0.3 µM): 19.4% | viability, T/C (second compound 0.00949 µM, first compound 0.949 µM): 6.41% | viability, T/C (second compound 0.00949 µM, first compound 3 µM): 0.15% | viability, T/C (second compound 0.03 µM, first compound 0.00949 µM): 14.9% | viability, T/C (second compound 0.03 µM, first compound 0.03 µM): 28.7% | viability, T/C (second compound 0.03 µM, first compound 0.0949 µM): 18.9% | viability, T/C (second compound 0.03 µM, first compound 0.3 µM): 18% | viability, T/C (second compound 0.03 µM, first compound 0.949 µM): 5.53% | viability, T/C (second compound 0.03 µM, first compound 3 µM): 0.13% | viability, T/C (second compound 0.0949 µM, first compound 0.00949 µM): 9.15% | viability, T/C (second compound 0.0949 µM, first compound 0.03 µM): 28.8% | viability, T/C (second compound 0.0949 µM, first compound 0.0949 µM): 10.8% | viability, T/C (second compound 0.0949 µM, first compound 0.3 µM): 10.3% | viability, T/C (second compound 0.0949 µM, first compound 0.949 µM): 3.73% | viability, T/C (second compound 0.0949 µM, first compound 3 µM): 0.14% | viability, T/C (second compound 0.3 µM, first compound 0.00949 µM): 3.72% | viability, T/C (second compound 0.3 µM, first compound 0.03 µM): 3.65% | viability, T/C (second compound 0.3 µM, first compound 0.0949 µM): 3.75% | viability, T/C (second compound 0.3 µM, first compound 0.3 µM): 3.83% | viability, T/C (second compound 0.3 µM, first compound 0.949 µM): 1.56% | viability, T/C (second compound 0.3 µM, first compound 3 µM): 13.9%

[2H]c1nc(C)nc([2H])c1-c1cc(NC[C@@H](C)c2cccc3c(C(=O)NC)ccnc23)ncn1
viability, T/C (compound 0.0316 µM): 102% and 103% and 99.3% | viability, T/C (compound 0.1 µM): 107% and 55.1% and 102% | viability, T/C (compound 0.316 µM): 99.8% and 70.6% and 102% | viability, T/C (compound 1 µM): 102% and 101% and 99.3% | viability, T/C (compound 3.16 µM): 102% and 90.8% and 97.4% | viability, T/C (compound 10 µM): 96.6% and 71% and 95% | IC50 (curve of compound): > 10000 nM
